Where two headings read alike, the source gives them in different places.
How the values were obtained:
Assay in all cases: Ras GTP binding domain inhibition assay (labeled GTP)
KRas Q61H mutant = KRas Q61H mutant (Homo sapiens (Human), UniProt P01116, Q61H); conditions: 20 μM compound
Procedure, shortened: (§1)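 Labelled-GTP binding: plate-captured His-KRas protein was pre-exposed to compound for 3 h at room temperature (single 20 μM point or dilution series, 1% DMSO, Tris pH 7.5/MgCl2/DTT buffer). Cy3- or Cy5-GTP was then added for 45 min. Washed wells were read for retained fluorescence to give inhibition or IC50.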

[1] = molecular target: KRas G12D/Q61H double mutant (Homo sapiens (Human), UniProt P01116, G12D/Q61H); conditions: for inhibition at 20 µM: 20 μM compound; for IC50: serial dilution, read-out: KRas G12D Q61H (classes E-H, IC50)
Sequence of KRas G12D/Q61H double mutant (P01116-2 other isoform, or with tags, fused parts or gaps G12D/Q61H): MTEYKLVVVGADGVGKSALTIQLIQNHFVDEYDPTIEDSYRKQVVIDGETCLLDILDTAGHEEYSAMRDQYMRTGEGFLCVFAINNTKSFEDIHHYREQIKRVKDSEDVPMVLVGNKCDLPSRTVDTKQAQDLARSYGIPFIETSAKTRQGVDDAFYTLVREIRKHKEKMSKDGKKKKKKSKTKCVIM
Procedure, shortened: as §1

[2] = molecular target: KRas G12C/Q61H double mutant (Homo sapiens (Human), UniProt P01116, G12C/Q61H); conditions: 20 μM compound
Sequence of KRas G12C/Q61H double mutant (P01116-2 other isoform, or with tags, fused parts or gaps G12C/Q61H): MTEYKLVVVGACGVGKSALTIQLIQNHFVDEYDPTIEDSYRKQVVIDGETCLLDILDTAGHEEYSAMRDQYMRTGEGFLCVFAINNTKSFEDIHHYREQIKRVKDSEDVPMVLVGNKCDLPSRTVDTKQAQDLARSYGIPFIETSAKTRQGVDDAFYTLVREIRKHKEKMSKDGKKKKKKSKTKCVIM
Procedure, shortened: as §1

[3] = KRas Q61H, read-out: % Inhibition at 20 μM of K-Ras mutant and wild-type protein, KRas Q61H
[4] = KRas G12D/Q61H double mutant, read-out: % Inhibition at 20 μM of K-Ras mutant and wild-type protein, KRas G12D Q61H
[5] = KRas G12C/Q61H double mutant, read-out: % Inhibition at 20 μM of K-Ras mutant and wild-type protein, KRas G12C Q61H
[6] = read-out: % Inhibition at 20 μM KRas Q61H
[7] = read-out: % Inhibition at 20 μM KRas G12D Q61H
[8] = read-out: % Inhibition at 20 μM KRas G12C Q61H

Sequence of KRas Q61H mutant (P01116-2 other isoform, or with tags, fused parts or gaps Q61H): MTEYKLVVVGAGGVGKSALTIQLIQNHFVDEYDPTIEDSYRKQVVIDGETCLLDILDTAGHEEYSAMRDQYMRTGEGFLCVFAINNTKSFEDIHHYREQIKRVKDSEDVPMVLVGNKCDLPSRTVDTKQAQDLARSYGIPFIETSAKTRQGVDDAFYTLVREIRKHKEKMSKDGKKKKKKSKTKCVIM

| Compound | inhibition at 20 µM (KRas Q61H mutant; [3]) | inhibition at 20 µM [1, 4] | inhibition at 20 µM [2, 5] | inhibition at 20 µM (KRas Q61H mutant; [6]) | inhibition at 20 µM [1, 7] | inhibition at 20 µM [2, 8] | IC50 [1] |
| --- | --- | --- | --- | --- | --- | --- | --- |
| N#Cc1cccc(N2CCN(C(=O)c3csc4c(O)nc(-c5ccccn5)nc34)CC2)c1 [drawing 2755] | – | – | – | 25 to 50% | 1 to 25% | 25 to 50% | – |
| Cc1cncc(-c2csc3c(O)nc(-c4ccccn4)nc23)c1 [drawing 3467] | 25 to 50% | 25 to 50% | 25 to 50% | – | – | – | – |
| Cc1ccc(-c2cc3nc(-c4ccccn4)nc(O)c3s2)cc1 [drawing 3555] | 0% | 0% | 1 to 25% | – | – | – | – |
| COC(=O)c1c(C)sc2c(N)nc(-c3ccccn3)nc12 [drawing 3499] | 76 to 100% | 51 to 75% | 51 to 75% | – | – | – | – |
| O=C(NCCc1ccncn1)c1csc2nc(-c3ccccn3)nc(N3CCOCC3)c12 [drawing 3500] | 51 to 75% | 25 to 50% | 25 to 50% | – | – | – | – |
| CC(C)(C(=O)Nc1ccnc(-c2ccccn2)n1)c1ccc(C#N)cc1 [drawing 2751] | – | – | – | 51 to 75% | 1 to 25% | 51 to 75% | – |
| Nc1nc(-c2ccccn2)nc2scc(C(=O)O)c12 [drawing 2906] | – | – | – | 51 to 75% | 25 to 50% | 51 to 75% | – |
| COc1ccc(CCNC(=O)c2csc3nc(-c4ccccn4)nc(N4CCS(=O)(=O)CC4)c23)cn1 [drawing 2853] | – | – | – | 25 to 50% | 25 to 50% | 25 to 50% | – |
| Nc1nc(O)c2sc(-c3cccc(C(=O)N4CCC(O)C4)c3)cc2n1 (centres unmarked) [drawing 3543] | 1 to 25% | 1 to 25% | 1 to 25% | – | – | – | – |
| Cc1c(C(=O)N2CCN(c3ccccc3)CC2)sc2c(O)nc(-c3ccccn3)nc12 [drawing 3483] | 51 to 75% | 51 to 75% | 51 to 75% | – | – | – | – |
| COc1cc(N2CCN(C(=O)c3csc4c(O)nc(-c5ccccn5)nc34)CC2)cc(OC)c1OC [drawing 2758] | – | – | – | 25 to 50% | 0% | 1 to 25% | – |
| O=C(c1csc2c(O)nc(-c3ccccn3)nc12)N1CCNC(c2ccccc2F)C1 (centres unmarked) [drawing 2776] | – | – | – | 76 to 100% | 25 to 50% | 51 to 75% | – |
| COC(=O)c1csc2nc(-c3ccccn3)nc(N)c12 [drawing 2895] | – | – | – | 25 to 50% | 25 to 50% | 25 to 50% | – |
| Oc1nc(-c2ccccn2)nc2c(-c3ccc(OC4CCCC4)cc3)csc12 [drawing 2863] | – | – | – | 25 to 50% | 25 to 50% | 25 to 50% | – |
| O=C(NCCc1nnn[nH]1)c1csc2nc(-c3ccccn3)nc(N3CCOCC3)c12 [drawing 2786] | – | – | – | 51 to 75% | 1 to 25% | 25 to 50% | – |
| Oc1nc(-c2ccccn2)nc2c(-c3ccc(C4CCC4)cc3)csc12 [drawing 2865] | – | – | – | 51 to 75% | 51 to 75% | 51 to 75% | – |
| COC(=O)c1c(C)sc2nc(-c3ccccn3)nc(N)c12 [drawing 3485] | 25 to 50% | 51 to 75% | 25 to 50% | – | – | – | – |
| COc1ccc(C2CN(C(=O)c3csc4c(O)nc(-c5ccccn5)nc34)CCO2)cc1 (centres unmarked) [drawing 2768] | – | – | – | 25 to 50% | 25 to 50% | 25 to 50% | – |
| Oc1nc(-c2ccccn2)nc2c(-c3ccccc3)c(-c3ccncc3)sc12 [drawing 3548] | 51 to 75% | 0% | 0% | – | – | – | – |
| O=C(c1csc2c(O)nc(-c3ccccn3)nc12)N1CCOC(Cc2ccccc2)C1 (centres unmarked) [drawing 2771] | – | – | – | 51 to 75% | 25 to 50% | 51 to 75% | – |
| O=C(c1csc2c(O)nc(-c3ccccn3)nc12)N1CCN(Cc2cccc(O)c2)CC1 [drawing 2726] | – | – | – | 76 to 100% | 76 to 100% | 76 to 100% | 11 to 30 µM |
| O=C(c1csc2c(O)nc(-c3ccccn3)nc12)N1CCNC(c2ccc(F)cc2)C1 (centres unmarked) [drawing 2807] | – | – | – | 76 to 100% | 1 to 25% | 76 to 100% | – |
| COc1ccnc(-c2nc(O)c3c(Br)csc3n2)c1 [drawing 2742] | – | – | – | 25 to 50% | 25 to 50% | 1 to 25% | – |
| CCn1nc(C)cc1-c1csc2c(O)nc(-c3ccccn3)nc12 [drawing 2903] | – | – | – | 51 to 75% | 51 to 75% | 51 to 75% | 11 to 30 µM |
| COc1nc(-c2ccccn2)nc(Oc2cccc(C(F)(F)F)c2)c1OC [drawing 3552] | 0% | 1 to 25% | 0% | – | – | – | – |
| COc1nc(-c2ccccn2)nc2c(C3CC3)csc12 [drawing 3489] | 0% | 1 to 25% | 0% | – | – | – | – |
| N#Cc1ccc(COCC(=O)Nc2ccnc(-c3ccccn3)n2)cc1 [drawing 2796] | – | – | – | 51 to 75% | 0% | 25 to 50% | – |
| COC(=O)c1sc2c(O)nc(-c3ccccn3)nc2c1C [drawing 3476] | 51 to 75% | 25 to 50% | 51 to 75% | – | – | – | – |
| CC(C)c1nn(C)cc1-c1csc2c(O)nc(-c3ccccn3)nc12 [drawing 3501] | 51 to 75% | 51 to 75% | 51 to 75% | – | – | – | – |
| COc1cnc(C2(N)CCCC2)nc1O [drawing 3490] | 0% | 1 to 25% | 1 to 25% | – | – | – | – |

The next lines start with results.

| inhibition at 20 µM (KRas Q61H mutant; [3]) | inhibition at 20 µM [1, 4] | inhibition at 20 µM [2, 5] | inhibition at 20 µM (KRas Q61H mutant; [6]) | inhibition at 20 µM [1, 7] | inhibition at 20 µM [2, 8] | Compound | IC50 [1] |
| --- | --- | --- | --- | --- | --- | --- | --- |
| 51 to 75% | 25 to 50% | 25 to 50% | – | – | – | Cc1c(Br)sc2c(O)nc(-c3ccccn3)nc12 [drawing 3474] | – |
| – | – | – | 51 to 75% | 0% | 25 to 50% | COCCCCNC(=O)c1csc2nc(-c3ccccn3)nc(N(CCOC)CCOC)c12 [drawing 2793] | – |
| 51 to 75% | 25 to 50% | 51 to 75% | – | – | – | O=C(c1csc2c(O)nc(-c3ccccn3)nc12)N1CCNC(c2ccc(Cl)cc2)C1 (centres unmarked) [drawing 3525] | – |
| – | – | – | 25 to 50% | 1 to 25% | 25 to 50% | COc1ncc(CCNC(=O)c2csc3nc(-c4ccccn4)nc(N4CCOCC4)c23)cn1 [drawing 2748] | – |
| 1 to 25% | 1 to 25% | 1 to 25% | – | – | – | Cc1ccc(-c2csc3c(O)nc(-c4ccccn4)nc23)cc1 [drawing 3560] | – |
| 51 to 75% | 25 to 50% | 51 to 75% | – | – | – | Oc1nc(-c2ccccn2)nc2c(CC3CCCNC3)csc12 (centres unmarked) [drawing 3488] | – |
| 51 to 75% | 25 to 50% | 51 to 75% | – | – | – | COc1cnc(CNC(=O)c2cc3nc(-c4ccccn4)nc(O)c3s2)[nH]c1=O [drawing 3521] | – |
| – | – | – | 76 to 100% | 25 to 50% | 51 to 75% | O=C(c1csc2c(O)nc(-c3ccccn3)nc12)N1CCNC(c2ccccc2Cl)C1 (centres unmarked) [drawing 2806] | – |
| – | – | – | 1 to 25% | 0% | 25 to 50% | O=C(NCCc1ccc(O)c(O)c1)c1csc2nc(-c3ccccn3)nc(N3CCOCC3)c12 [drawing 2785] | – |
| – | – | – | 1 to 25% | 25 to 50% | 1 to 25% | Cc1sc2c(N)nc(-c3ccccn3)nc2c1-c1ccccc1 [drawing 2837] | – |
| – | – | – | 76 to 100% | 25 to 50% | 76 to 100% | O=C(c1csc2c(O)nc(-c3ccccn3)nc12)N1CCN(Cc2ccc(O)c(Cl)c2)CC1 [drawing 2765] | – |
| 25 to 50% | 1 to 25% | 1 to 25% | – | – | – | N#Cc1cccc(-c2csc3c(O)nc(-c4ccccn4)nc23)c1 [drawing 3503] | – |
| – | – | – | 1 to 25% | 25 to 50% | 1 to 25% | O=C(c1csc2c(O)nc(-c3ccccn3)nc12)N1CCOC(c2cccc(F)c2)C1 (centres unmarked) [drawing 2732] | – |
| – | – | – | 25 to 50% | 25 to 50% | 25 to 50% | COc1ccnc(-c2nc(O)c3c(C(F)(F)F)csc3n2)c1 [drawing 2833] | – |
| – | – | – | 51 to 75% | 1 to 25% | 25 to 50% | O=C(NCCc1cccnc1)c1csc2nc(-c3ccccn3)nc(N3CCOCC3)c12 [drawing 2744] | – |
| – | – | – | 51 to 75% | 1 to 25% | 51 to 75% | CN(CCc1cccc(C#N)c1)C(=O)c1csc2nc(-c3ccccn3)nc(N3CCOCC3)c12 [drawing 2788] | – |
| – | – | – | 51 to 75% | 0% | 25 to 50% | COc1ccnc(-c2nc(O)c3c(C#N)csc3n2)c1 [drawing 2782] | – |
| 51 to 75% | 25 to 50% | 51 to 75% | – | – | – | Oc1nc(-c2ccccn2)nc2c(CC3CNC3)csc12 [drawing 3519] | – |
| – | – | – | 76 to 100% | 1 to 25% | 76 to 100% | CC(C(=O)Nc1nc(-c2ccccn2)nc2sccc12)c1ccc(C#N)cc1 (centres unmarked) [drawing 2798] | – |
| 1 to 25% | 1 to 25% | 1 to 25% | – | – | – | Cn1ccnc1-c1nc(O)c2c(-c3ccccc3)c(-c3ccccc3)sc2n1 [drawing 3536] | – |

Source: patent US10940139B2, “Compounds that interact with the Ras superfamily for the treatment of cancers, inflammatory diseases, rasopathies, and fibrotic disease” (Shy Therapeutics LLC, priority 2017, dated 2021)
